Columns and labels:
YB5 cells [1] = assay: GFP reactivation in YB5 cell-based system (flow cytometry); set-up: species or system human; details: for GFP expression in YB5 cells, adenosine analogues: Figure S2; for GFP+ cells: alone, screen control
Protocol: YB5 cells are derived from SW48 cells (human colon cancer cell line), and contain a single insertion of a DNA hypermethylated cytomegalovirus (CMV) promoter driving the green fluorescent protein (GFP) gene, as previously described. YB5 cells are cultured in L-15 medium supplemented with 10% fetal bovine serum and grown in log-phase in 1% CO2 atmosphere. YB5 cells were authenticated by DNA fingerprinting prior to drug screening and validation experiments. GFP expression in YB5 cells is silenced in >99.9% of the cells due to the CMV promoter DNA hypermethylation and repressive chromatin marks around the transcriptional start site. The human HCT116 colon cancer-derived GFP-reporter system, comprising a GFP gene under the control of an endogenously hypermethylated SFRP1 gene promoter, was kindly provided by Dr. Stephen Baylin (Johns Hopkins University). These cells are cultured in McCoy’s 5A medium supplemented with 10% fetal bovine serum and grown in log-phase in 5% CO2 atmosphere at 37 °C. The 451-Lu-BR melanoma cells were a kind gift from Dr. Raza Zaidi (Fels Institute for Cancer Research and Molecular Biology, Temple University School of Medicine, Philadelphia). These cells are derived from parental 451-LU cells that have acquired resistance to BRAF inhibitors. The 451-Lu-BR cells were cultured at 37 °C in Dulbecco’s Modified Eagle Medium (DMEM) supplemented with 10% fetal bovine serum, L-alanyl-L-glutamine (2 mM), and gentamycin (50 µg/mL) in 5% CO2 at 37 °C. The natural drug library (natural product set II) containing 120 compounds was obtained from the National Cancer Institute Developmental Therapeutics Program. Natural compounds were dissolved in DMSO (10 mM) in 96-well plates that were kept at −80°C until use. Toyocamycin, analogues of toyocamycin (sangivamycin, tubercidin, 3-deaza-adenosine, DZNep), CDK inhibitors, and epigenetic drugs (decitabine, SAHA, trichostatin A, depsipeptide) were purchased from Sigma-Aldrich (St. Louis, MO, USA,) for validation studies, dissolved in DMSO, and kept at −80 °C until use.
YB5 cells were seeded at 30,000 cell/mL in 96-well plates (6000 cells/well) and treated 3 days after seeding. Cells were exposed to 120 natural compounds in 5 different experimental conditions: (1) 72 h exposure at 10 µM followed by 24 h recovery period prior to analysis; (2) 24 h treatment at 50 µM prior to analysis; (3) 72 h exposure at 10 µM of the compound library followed by 24 h treatment with HDAC inhibitor trichostatin A (200 nM) prior to analysis; (4) 72 h exposure at 10 µM in simultaneous combination with decitabine (50 nM) followed by 24 h recovery period prior to analysis; and (5) 72 h treatment with decitabine (50 nM) followed by 24 h exposure with the natural compound library (50 µM) prior to analysis. The scheme of different dose schedules is shown Figure S1A. During screening, drugs and cell culture media were replaced every day. To ensure the quality and the reproducibility of the screen, each 96-well plate was designed to include 80 natural compounds, 4 untreated wells, 4 wells treated with decitabine (50 nM, 72 h), 4 wells treated with trichostatin A (200 nM, 24 h), and their combination with decitabine (50 nM, 72 h) followed by trichostatin A treatment (200 nM, 24 h) prior to flow cytometry analysis. The percentage of GFP-expressing cells in control wells (untreated or treated with known epigenetic drugs) was measured and was reproducible between different plates.
After treatment, YB5 cells were trypsinized for 15 min and resuspended in L-15 media containing propidium iodide (PI) to stain dead cells. GFP expression and PI staining were quantified by a BD LSR II flow cytometer (BD Biosciences, San Jose, CA, USA). A maximum of 10,000 cells was analyzed per well. Validations were performed using a Millipore Guava flow cytometer (EMD, Millipore, Burlington, MA, USA). […]

CDK9 = details: cited from earlier work
YB5 cells [2] = assay: anchorage-dependent clonogenic assay; format: cell-based, human; details: 10–50 nM, 72 h treatment, 2 weeks drug-free
Protocol: Two hundred YB5 cells were seeded per well in 6-well plates. On the following day, YB5 cells were treated with toyocamycin for 24 h or 72 h. Decitabine (10–50 nM for 72 h) was used as a positive control for the loss of clonogenic potential. Drugs and media were replaced each day. After treatment, media was removed. YB5 cells were grown in drug-free media for 2 weeks to allow visible colony formation prior to colony staining (0.5% methylene blue in 50% methanol). YB5 colonies were counted manually.

RNA-Pol II Ser2-P = assay: Western blot, RNA Pol II and phospho-Pol II Ser2; format: cell-based, human; details: HCT116, 1–10 µM, 16 h
Protocol: YB5 cells were harvested in 50 mM Tris-HCl, 1% NP-40, 1 mM EDTA, 1 mM EGTA, 0.25% sodium deoxycholate, 150 mM NaCl, 50 mM sodium fluoride, and 1X Complete protease cocktail (Roche, Basel, Switzerland) with 1 mM PMSF. The total protein concentration was measured in all samples by standard BCA protocol (Pierce-23225, Thermo Scientific, Waltham, MA, USA) to ensure that an equal amount of protein was added to each sample. Protein extracts were run on 12% SDS–PAGE precast gels (Bio-Rad, Hercules, CA, USA, 345-0118). Proteins were transferred to polyvinylidene difluoride (PVDF) membranes in 10 mmol/L CAPS (pH-11) containing 10% methanol and detected by using specific primary antibodies, horseradish peroxidase–conjugated secondary antibodies (GE Healthcare, Chicago, IL, USA), and an enhanced chemiluminescence reagent (Pierce). PVDF membranes were incubated with specific primary antibodies (actin—A5441, Sigma, St. Louis, MO, USA; HA-tagged—H9608, Sigma; FLAG-tagged—F3165, Sigma). FLAG- and HA-tagged CDK9 plasmids were a generous gift from Dr Bassel E. Sawaya (Temple University). For CDK9 target modulation, HCT116 colon cancer cells were treated with toyocamycin or known CDK9 inhibitor BAY1251152 (Selleckchem, Houston, TX, USA). Whole cell extracts were obtained by lysing cells with 25 mM Tris (pH 7.3) and 1% sodium dodecyl sulfate (SDS). After sonication, total protein concentrations were determined using Bradford protein assay. The following primary antibodies were used to investigate the effect of CDK9 inhibition: Pol II against the N-term region (sc-55492, Santa Cruz, Dallas, TX, USA), Pol II against the C-term region (39097, Active motif, Carlsbad, CA, USA), Pol II phospho CTD ser2 (14-9802-82, Invitrogen, Waltham, MA, USA), Rb (ab181616, Abcam, Cambridge, UK), Rb phospho T826 (ab133446, Abcam, Cambridge, UK), CDK9 (ab39098, Abcam, Cambridge, UK), and actin (ab1801, Abcam, Cambridge, UK). Images were acquired with an Image Quant LAS4000 device from GE Healthcare Life Sciences. Band intensity quantifications were calculated using ImageJ software, edition 1.53 [27].

Row | SMILES | GFP expression in YB5 cells, adenosine analogues (YB5 cells [1]; 24 h) | CDK9 inhibition IC50 values (CDK9) | other results
1 | Nc1nc(N[C@H]2C[C@@H]3CC[C@H]2C3)sc1C(=O)c1ccccc1[N+](=O)[O-] [MC180295] | – | – | GFP fluorescence, % of YB5 cells (YB5 cells [1]; 500 nM, 48 h): about 10%
2 | Nc1nccc2c1ncn2C1C=C(CO)C(O)C1O (stereo not shown) [DZNep] | only sangivamycin induced GFP expression | – | –
3 | CC(/C=C/C(=O)NO)=C\[C@@H](C)C(=O)c1ccc(N(C)C)cc1 [trichostatin A] | – | – | GFP+ cells (YB5 cells [1]; 200 nM, 24 h): about 6%
4 | CC(C)(C)c1cnc(CSc2cnc(NC(=O)C3CCNCC3)s2)o1 [SNS-032] | – | low nanomolar range | –
5 | Nc1nccc2c1ncn2[C@@H]1O[C@H](CO)[C@@H](O)[C@H]1O [3-deaza-adenosine] | only sangivamycin induced GFP expression | – | –
6 | Nc1n[nH]c(N)c1N=Nc1ccc(O)cc1 [CAN-508] | – | low nanomolar range | –
7 | CC(=O)N[C@@H]1CCC[C@H](C(=O)Nc2cc(-c3cnn4c3CC(C)(C)C4)c(Cl)cn2)C1 [AZD-4573] | – | low nanomolar range | –
8 | NC(=O)c1cn([C@@H]2O[C@H](CO)[C@@H](O)[C@H]2O)c2ncnc(N)c12 [sangivamycin] | induced GFP expression in YB5 cells, but to a lesser extent than toyocamycin | – | GFP expression in YB5 cells, adenosine analogues (YB5 cells [1]; 24 h, listed as Sangivamycin): weak GFP activation; CDK9 inhibition (CDK9): direct CDK9 inhibition
9 | COc1ccccc1-c1cc(Nc2cccc(CS(N)(=O)=O)c2)ncn1 [LDC000067] | – | low nanomolar range | –
10 | Nc1ncnc2c1ccn2[C@@H]1O[C@H](CO)[C@@H](O)[C@H]1O [tubercidin] | only sangivamycin induced GFP expression | – | –
11 | Nc1ncn([C@H]2C[C@H](O)[C@@H](CO)O2)c(=O)n1 [decitabine, 5-aza-2′-deoxycytidine] | – | – | GFP+ cells (YB5 cells [1]; 50 nM, 72 h): about 15%; colony formation (YB5 cells [2]): still produced colonies
12 | COc1cc(F)ccc1-c1cc(Nc2cc(CS(C)(=N)=O)ccn2)ncc1F (stereo not shown) [BAY1251152] | – | – | RNA Pol II band intensity, Pol II C-terminal antibody (RNA-Pol II Ser2-P): reduced the RNA Pol II band intensity; RNA-Pol II ser 2 phosphorylation (RNA-Pol II Ser2-P): significantly reduced
